# From patent publication US9994594B2, “Inhibitors of arginase and their therapeutic applications” (MARS, INCORPORATED, priority 2010, dated 2018)
# Counter-ions that a name gives are not always drawn.
# How the values were obtained:
# MDSC = settings: tumor bearing mice; cited from earlier work
# [1] = tested on: experimental autoimmune encephalomyelitis (EAE); settings: compared with control animals; cited from earlier work
# penile erectile response = assay: Erectile dysfunction efficacy model: penile erectile response in vivo
# Method: As described hereinabove, the compounds according to the invention are useful in the treatment and prevention of a variety of disorders and conditions that are affected by levels of nitric oxide (NO) regulated, in part, by arginase enzymes. The compounds are assessed for efficacy in such treatment and prevention by their performances in standardized in vivo tests. In vivo models to assess efficacy are developed for this purpose as described below.
# The inventive compounds are candidate therapeutics for treating ED, as assessed by measurements of penile erectile response according to a protocol described by Wingard C, Fulton J, and Husain S, J Sex Med 4: 348-363, 2007.
# bacterial arginase = settings: H. pylori; cited from earlier work
# central airways = settings: murine chronic model; cited from earlier work
# human arginase I (ARG I) = target: T1, human arginase I (ARG I) (Homo sapiens, UniProt P05089); assay: Inhibition of arginase I, spectrophotometric urea assay at 530 nm; assay type: biochemical; settings: Formula I compounds, Table 2; read-out: Potency (ARG I)
# T1 sequence (P05089 1-322): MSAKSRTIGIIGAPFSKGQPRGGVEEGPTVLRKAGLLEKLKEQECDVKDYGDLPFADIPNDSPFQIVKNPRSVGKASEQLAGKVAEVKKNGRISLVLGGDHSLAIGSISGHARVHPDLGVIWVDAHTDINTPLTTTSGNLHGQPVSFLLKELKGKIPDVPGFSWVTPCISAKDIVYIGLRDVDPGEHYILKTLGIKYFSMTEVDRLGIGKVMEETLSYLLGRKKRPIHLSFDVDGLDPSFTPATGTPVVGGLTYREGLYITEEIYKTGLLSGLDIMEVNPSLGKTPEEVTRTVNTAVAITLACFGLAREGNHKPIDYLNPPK
# Summary of the method: (§1)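 IC50 was derived by regression of OD530 normalized to uninhibited-enzyme controls against log concentration. Urea from 60-min, 37 °C turnover of L-arginine with manganese sulfate was detected after acid o-phthaldialdehyde/primaquine quench and 10 min colour development. Arginase I and II came from 100 ng/ml stocks in pH 7.4 phosphate with ovalbumin.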
# arginase II (ARG II) = target: T2, arginase II (ARG II) (Homo sapiens, UniProt P78540); assay: Inhibition of arginase II, spectrophotometric urea assay at 530 nm; assay type: biochemical; settings: Formula I compounds, Table 2; read-out: Potency (ARG II)
# T2 sequence (P78540 23-354): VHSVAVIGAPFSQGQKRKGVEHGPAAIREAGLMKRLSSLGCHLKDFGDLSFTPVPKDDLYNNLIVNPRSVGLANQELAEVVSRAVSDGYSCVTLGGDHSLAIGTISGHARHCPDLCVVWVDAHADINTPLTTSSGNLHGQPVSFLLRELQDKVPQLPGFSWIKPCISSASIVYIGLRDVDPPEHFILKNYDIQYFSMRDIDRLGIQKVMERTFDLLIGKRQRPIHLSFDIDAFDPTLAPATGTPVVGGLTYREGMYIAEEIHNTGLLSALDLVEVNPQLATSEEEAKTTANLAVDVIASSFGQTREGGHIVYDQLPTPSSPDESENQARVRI
# Summary of the method: as §1
# [2] = spontaneously hypertensive animals; cited from earlier work
IC50 (human arginase I (ARG I)),IC50 (arginase II (ARG II)),Structure (SMILES),further results
–,–,O=c1[nH]cc(F)c(=O)[nH]1 [5-Fluorouracil],MDSC immunesuppression (MDSC): eliminates MDSC immunesuppression; tumor growth (MDSC): delayed tumor growth
–,–,"NC(CCCCB(O)O)C(=O)O (stereo not drawn) [ABH, amino-6-boronohexanoic acid]",severity of EAE [1]: much milder form of EAE than in control animals
–,–,N[C@@](CCCCB(O)O)(CCN1CCCCC1)C(=O)O [Enantiomer of Ex. 13],Effect: increased erectile response relative to baseline (penile erectile response; @ 2.5 V stimulation): 0 (0 <10%); eliciting erectile responses in vivo (penile erectile response; in words): is not
–,–,NC(=NCCC[C@H](N)C(=O)O)NO [NOHA],CD3 expression on T-cells (bacterial arginase): reestablished CD3 expression on T-cells; production of NO by macrophages (bacterial arginase): enhanced production of NO by macrophages
–,–,N[C@@H](CSCCB(O)O)C(=O)O [S-(2-boronoethyl)-L-cysteine],methacholine induced responsiveness of the central airways (central airways): attenuated
0.1 to 250 nM,0.1 to 250 nM,"CNC(CCCCB(O)O)(CCCN1CCCC1)C(=O)O (stereo not drawn) [compound 137, 6-borono-2-(methylamino)-2-(3-(pyrrolidin-1-yl)propyl)hexanoic acid dihydrochloride]",–
0.1 to 250 nM,0.1 to 250 nM,"CNC(CCCCB(O)O)(CCCNC1Cc2ccccc2C1)C(=O)O (stereo not drawn) [compound 138, 6-borono-2-(3-(2,3-dihydro-1H-inden-2-ylamino)propyl)-2-(methylamino)hexanoic acid dihydrochloride]",–
0.1 to 250 nM,0.1 to 250 nM,"CNC(CCCCB(O)O)(CCCNCc1ccc(Cl)cc1)C(=O)O (stereo not drawn) [compound 139, 6-borono-2-(3-(4-chlorobenzylamino)propyl)-2-(methylamino)hexanoic acid dihydrochloride]",–
0.1 to 250 nM,0.1 to 250 nM,"NC(CCCCB(O)O)(CCCNCCc1ccc(Cl)cc1Cl)C(=O)O (stereo not drawn) [compound 140, 2-amino-6-borono-2-(3-(2,4-dichlorophenethylamino)propyl)hexanoic acid dihydrochloride]",–
0.1 to 250 nM,0.1 to 250 nM,"NC(CCCCB(O)O)(CCCNCc1ccc(Cl)c(Cl)c1)C(=O)O (stereo not drawn) [compound 141, 2-amino-6-borono-2-(3-(3,4-dichlorobenzylamino)propyl)hexanoic acid dihydrochloride]",–
0.1 to 250 nM,0.1 to 250 nM,"NC(CCCCB(O)O)(CC[C@@H]1CCCN1)C(=O)O (stereo partly drawn) [compound 143, 2-amino-6-borono-2-(2-((S)-pyrrolidin-2-yl)ethyl)hexanoic acid dihydrochloride]",–
0.1 to 250 nM,0.1 to 250 nM,"CNC(CCCCB(O)O)(CC[C@@H]1CCCN1)C(=O)O (stereo partly drawn) [compound 144, 6-borono-2-(methylamino)-2-(2-((S)-pyrrolidin-2-yl)ethyl)hexanoic acid dihydrochloride]",–
1000 to 2000 nM,1000 to 2000 nM,"O=C(O)C(CCCCB(O)O)NCc1ccc(Cl)cc1 (stereo not drawn) [compound 145, 6-borono-2-(4-chlorobenzylamino)hexanoic acid hydrochloride]",–
1000 to 2000 nM,2000 to 5000 nM,"CNC(CCCCB(O)O)C(=O)O (stereo not drawn) [compound 146, 6-borono-2-(methylamino)hexanoic acid hydrochloride]",–
0.1 to 250 nM,251 to 1000 nM,"NC(CCCCB(O)O)(CCCN1CCCCC1)C(=O)O (stereo not drawn) [compound 147, 2-amino-6-borono-2-(3-(piperidin-1-yl)propyl)hexanoic acid dihydrochloride]",–
0.1 to 250 nM,0.1 to 250 nM,"CNC(CCCCB(O)O)(CCCN1CCCCC1)C(=O)O (stereo not drawn) [compound 148, 6-borono-2-(methylamino)-2-(3-(piperidin-1-yl)propyl)hexanoic acid dihydrochloride]",–
0.1 to 250 nM,0.1 to 250 nM,"CNC(CCCCB(O)O)(CCN1CCCCC1)C(=O)O (stereo not drawn) [compound 149, 6-borono-2-(methylamino)-2-(2-(piperidin-1-yl)ethyl)hexanoic acid]",–
–,–,Nc1ccn([C@@H]2O[C@H](CO)[C@@H](O)C2(F)F)c(=O)n1 [gemcitabine],MDSC immunesuppression (MDSC): eliminates MDSC immunesuppression; tumor growth (MDSC): delayed tumor growth
–,–,"N=C(NO)NCC[C@H](N)C(=O)O [nor-NOHA, N^ω-hydroxy-nor-L-arginine]",blood pressure [2]: lowered blood pressure; vascular response of resistance vessels to blood flow and pressure [2]: improved the vascular response of resistance vessels to blood flow and pressure
